Laboratory results: the supplement of paper PMC12669032

Experiments:
Test in all cases: growth AUC relative to DMSO control (fraction); higher = more growth (less inhibition)
Settings in all cases: 24 h
Streptococcus salivarius = test system: Streptococcus salivarius
Experimental: (§1)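 Validation screen: 11 independently purchased pesticides tested on 8 gut bacterial strains at 2.5–320 µM in mGAM, anaerobic, 37 °C, 24 h. Growth AUC normalised to DMSO controls, mean of 3 independent experiments.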

Lactobacillus gasseri = test system: Lactobacillus gasseri
Experimental: as §1

Escherichia coli IAI1 = test system: Escherichia coli IAI1
Experimental: as §1

[1] = test system: Parabacteroides distasonis
Experimental: as §1

Bacteroides uniformis = test system: Bacteroides uniformis
Experimental: as §1

Clostridium difficile = test system: Clostridium difficile
Experimental: as §1

Eubacterium rectale = test system: Eubacterium rectale
Experimental: as §1

Roseburia intestinalis = test system: Roseburia intestinalis
Experimental: as §1

CCCC1COC(Cn2cncn2)(c2ccc(Cl)cc2Cl)O1 (stereo not drawn) [PROPICONAZOLE]
growth AUC
Settings | Bacteroides uniformis | Clostridium difficile | Escherichia coli IAI1 | Eubacterium rectale | Lactobacillus gasseri | Roseburia intestinalis | Streptococcus salivarius | [1]
2.5 µM | 1.03 | 0.982 | 1 | 1.19 | 1.03 | 0.971 | 1.1 | 1.12
5 µM | 0.99 | 1.01 | 0.993 | 0.951 | 0.968 | 0.925 | 1.04 | 1
10 µM | 1.02 | 0.967 | 0.971 | 0.703 | 1.02 | 1.01 | 1.06 | 0.988
20 µM | 0.97 | 1.03 | 0.981 | 0.475 | 0.96 | 0.894 | 0.994 | 0.874
40 µM | 0.951 | 0.981 | 0.999 | 0.344 | 0.972 | 0.947 | 1.04 | 0.488
80 µM | 0.915 | 0.979 | 0.975 | 0.0163 | 0.94 | 0.716 | 1.06 | 0.284
160 µM | 0.831 | 0.885 | 0.996 | 0.0214 | 0.851 | 0.202 | 1.03 | 0.0246
320 µM | 0.618 | 0.385 | 0.994 | 0.0204 | 0.832 | 0.0162 | 0.932 | 0.0187

CCCCOC(=O)[C@@H](C)Oc1ccc(Oc2ccc(C#N)cc2F)cc1 [CYHALOFOP-BUTYL]
growth AUC
Settings | Bacteroides uniformis | Clostridium difficile | Escherichia coli IAI1 | Eubacterium rectale | Lactobacillus gasseri | Roseburia intestinalis | Streptococcus salivarius | [1]
2.5 µM | 1.01 | 1.02 | 1.01 | 1.11 | 1.05 | 1.01 | 1.07 | 1.04
5 µM | 0.969 | 0.984 | 0.98 | 1.04 | 0.986 | 0.964 | 1.02 | 0.93
10 µM | 0.994 | 0.98 | 0.975 | 1.05 | 0.986 | 1.02 | 0.957 | 0.859
20 µM | 0.937 | 1.03 | 0.972 | 0.967 | 0.981 | 0.891 | 0.972 | 0.717
40 µM | 0.971 | 1.02 | 0.996 | 1.02 | 0.956 | 0.981 | 0.981 | 0.643
80 µM | 0.99 | 0.992 | 0.979 | 1.13 | 1.01 | 0.976 | 0.999 | 0.684
160 µM | 0.968 | 1.01 | 0.992 | 1.18 | 0.969 | 0.998 | 1.01 | 0.588
320 µM | 0.925 | 0.977 | 1 | 1.28 | 0.975 | 0.918 | 1.1 | 0.437
